The record followed here is ChEMBL document CHEMBL3507680, “University of Dundee, Gates Library screen for HepG2 cell viability”.

Each structure is given as a SMILES string.

This series can be described thus: Human HepG2 cell viability assay in 384 well format. Type of series: toxicity, cell-based. On the set-up: dose 125 nL, time 70.5 hour; cytotoxicity at 70.5 h: concentration not given beside the values. As to conditions: HepG2 cells, read-out: Inhibition.
Turning to `CSc1ccc(NC(=O)NCC(O)C(C)C)cc1F` (stereo not drawn), the cytotoxicity at 70.5 h worked out at 4.17%.
With `Cc1ccc(CSc2nc(N)cc(NCCC(N)=O)n2)cc1`, the cytotoxicity at 70.5 h is -0.193%.
Turning to `Cc1cc(C(=O)N2CCC3(CC2)CN(CCN(C)C)C(=O)O3)nc(C)n1`, the cytotoxicity at 70.5 h was -6.56%.
In the case of `CC(Nc1nc2c(cnn2C)c(=O)[nH]1)c1ccc2c(c1)CCCC2` (stereo not drawn), the cytotoxicity at 70.5 h was -3.73%.
With `Cc1ccc(OC2(C(=O)O)CCN(C/C=C/c3ccco3)CC2)c(C)n1`, the cytotoxicity at 70.5 h is -7.06%.
For `COCc1ncc(-c2nccn2CCn2cnnc2)cn1`, the cytotoxicity at 70.5 h is -2.42%.
Take `Cc1c(F)cc(C(=O)O)cc1S(=O)(=O)Nc1ccccc1`: the cytotoxicity at 70.5 h worked out at 3.77%.
As to `CN(C)C(=O)CO[C@@H]1CN(Cc2ccccc2)[C@@H]2CCCO[C@@H]21`, the cytotoxicity at 70.5 h is 6.93%.
Then `CN(C)C(=O)CN1C[C@@H]2CC[C@H](C1)N(C(=O)Cc1ccccc1Cl)C2`, with 8.11%; and `CC1=C(c2ccc(C(C)C)cc2)S(=O)(=O)N=C1N1CCc2ccccc21`, with 33.6%.
Then `Cc1csc2ncc(-c3ccnc(NC4CCOCC4)n3)c(=O)n12`, with 0.723%.
As to `CCn1cnnc1CNC(=O)c1cc(F)ccc1OC`, the cytotoxicity at 70.5 h was -6.76%.
As for `O=C(c1ccc(S(=O)(=O)NCCc2ccccn2)cc1)N1CCCC1`, the cytotoxicity at 70.5 h is -14.8%.
For `CC(=O)c1ccc(C(=O)N2C[C@@H]3CC[C@H](C2)N(Cc2ccccc2)C3)s1`, the cytotoxicity at 70.5 h was 4.96%.
On to `CCn1cc(NC(=O)NCCN2CCc3ccccc3C2)cn1`, for which the cytotoxicity at 70.5 h stood at 4.14%.
Turning to `Cc1cc(N)n(-c2ccc3nnc(C)n3n2)n1`, the cytotoxicity at 70.5 h came to 6.51%.
As to `COc1ncccc1CNC(=O)NC1CCOc2ccccc21` (stereo not drawn), the cytotoxicity at 70.5 h is -13.3%.
For the compound `Cc1ccc(-c2cn[nH]c2C2CCCN(c3cc(N)ncn3)C2)cc1` (stereo not drawn), the cytotoxicity at 70.5 h stood at 5.4%.
For `COCCNC(=O)NC(C)COc1ccc(F)cc1F` (stereo not drawn), the cytotoxicity at 70.5 h is -0.107%.
Then `CC(C)c1nnc2n1CCN(Cc1cc(Cl)c3c(c1)OCCO3)C2`, with -4.04%; and `COc1cccc(N2CCN(Cc3cc(C)cc(F)c3)CC2=O)c1`, with -3.94%.
`CC(C)c1ccc(OCCC(=O)NCCC(=O)N(C)C)cc1`: the cytotoxicity at 70.5 h is -8.34%.
For `O=C(O)c1ccc(N2CCC(Oc3cccc(F)c3)CC2)nc1`, the cytotoxicity at 70.5 h is 14.5%.
On to `O=C1[C@@H]2CCN(Cc3ccoc3)C[C@@H]2OCCN1Cc1cccc(F)c1`, for which the cytotoxicity at 70.5 h was -4.35%.
On to `CC(Cn1ccnc1)NC(=O)NCCc1ccc2c(c1)OCCO2` (stereo not drawn), for which the cytotoxicity at 70.5 h stood at 13.3%.
Then `Cc1noc(-c2ccc(N3CCC[C@H]3CO)nc2)n1`, with -0.652%; and `COc1cc(Br)c(CNC(C)c2nnc3n2CCC3)cc1OC` (stereo not drawn), with 10.6%.
Take `Cc1csc(C2CCCN(C(=O)c3cnc[nH]3)C2)n1` (stereo not drawn): the cytotoxicity at 70.5 h is -0.708%.
Take `CC(=O)N1Cc2ccccc2C[C@H]1C(=O)N(C)CCc1ccccn1`: the cytotoxicity at 70.5 h is 19.3%.
With `Fc1ccc(OCc2nnc([C@H]3CCN(Cc4ccccn4)C3)o2)cc1`, the cytotoxicity at 70.5 h is -7.48%.
In the case of `CN(Cc1ccc(C#N)cc1)c1ncc(C(N)=O)cc1Cl`, the cytotoxicity at 70.5 h is -7.36%.
On to `CC(=O)N1CCC(NC(=O)N2CCCC2c2ccsc2)CC1` (stereo not drawn), for which the cytotoxicity at 70.5 h turned out to be 6.84%.
The figure for `Cc1cc(C)nc(N2CCC(C(=O)Nc3ncc[nH]3)CC2)n1` is -7.67%; for `COc1ncc(NCc2csc(-c3ccco3)n2)cc1C(N)=O` it is -11%; for `CC(=O)NC[C@@H]1C=C(C)[C@H](CC(=O)NCCN(C)C)C[C@H]1C(C)C` it is 23.8%.
As for `CCOC(=O)[C@]12CCCN(Cc3cccs3)C[C@H]1CN(C(C)C)C2`, the cytotoxicity at 70.5 h was 1.55%.
As for `Cc1noc(C)c1CNC1CCN(c2ccccc2OC(F)F)C1` (stereo not drawn), the cytotoxicity at 70.5 h was -3.18%.
Take `CCc1ccc(C(=O)N2CCCC2c2c(C)nn(C)c2OC)o1` (stereo not drawn): the cytotoxicity at 70.5 h was -6.13%.
Turning to `Cn1nc2c(cc1=O)CN(CCOc1ccccc1C#N)CC2`, the cytotoxicity at 70.5 h came to 35%.
As to `CCN1CCC(CNC(=O)C(c2ccccc2F)N(C)C)(N(C)C)CC1` (stereo not drawn), the cytotoxicity at 70.5 h is -2.78%.
Then `CN(C)[C@@H]1CCN(C(=O)NC2CCCC2)[C@H]1Cc1cnn(C)c1`, with -15.8%.
In the case of `Brc1cc(CNCc2nnc3n2CCC3)cs1`, the cytotoxicity at 70.5 h was -8.54%.
As to `O=C(NCc1ccc(Cl)cc1)C1=NOC2(CCNC2)C1` (stereo not drawn), the cytotoxicity at 70.5 h is -9.72%.
With `CC(C)c1nc(CN(C)C(=O)CNC(N)=O)cs1`, the cytotoxicity at 70.5 h was -6.72%.
Consider `CC(C)NC(=O)N1C[C@H]2C[C@H](C(=O)N3CCCC3)[C@@H](C1)O2`, for which the cytotoxicity at 70.5 h was found to be 21.9%.
For the compound `Cc1nn(C)c(C)c1S(=O)(=O)N(C)Cc1nn(C)c(Cl)c1Cl`, the cytotoxicity at 70.5 h amounted to 18.2%.
Turning to `Cc1ncsc1C(=O)N1CCc2[nH]nc(-c3ccc4c(c3)OCO4)c2C1`, the cytotoxicity at 70.5 h came to 13.6%.
As to `CC(=O)N1C[C@@H]2CC[C@H](C1)N(S(=O)(=O)c1ccc(C#N)cc1Cl)C2`, the cytotoxicity at 70.5 h is -12.7%.
With `O=C(NCc1cn2c(n1)CN(Cc1cccc(F)c1)CC2)C1CCC1`, the cytotoxicity at 70.5 h was -3.08%.
`CC(C)S(=O)(=O)c1nnc(CCNC(=O)OC(C)(C)C)o1`: the cytotoxicity at 70.5 h came out at 29.5%.
As for `CCc1noc(C2CCCCN2C(=O)c2ccn(C3CCCC3)n2)n1` (stereo not drawn), the cytotoxicity at 70.5 h came out at 31%.
As for `CCC(c1ccccc1)N1CCN(C(=O)c2cc(C(N)=O)c[nH]2)CC1` (stereo not drawn), the cytotoxicity at 70.5 h was -4.98%.
On to `Cc1cccn2c(CNC(C)CCn3cccn3)cnc12` (stereo not drawn), for which the cytotoxicity at 70.5 h was 3.49%.
As for `Cc1c(C2NC3(CCCC3)C(=O)N2CC2CC2)cc(C#N)n1C` (stereo not drawn), the cytotoxicity at 70.5 h was -8.72%.
For `COCc1nc(C(=O)N2CCCC2c2c(C)nn(C)c2C)cs1` (stereo not drawn), the cytotoxicity at 70.5 h is -6.67%.
In the case of `CCc1nc(C2CCCN2CCc2cccs2)no1` (stereo not drawn), the cytotoxicity at 70.5 h is 17.3%.
As for `Cc1cc(NCc2ccccc2)nc2[nH]nc(N)c12`, the cytotoxicity at 70.5 h was -12.7%.
Consider `CCc1cnc(C)nc1NCCN1CCCC(C(N)=O)C1` (stereo not drawn), for which the cytotoxicity at 70.5 h came out at 0.301%.
Then `Cc1ccc(C(=O)NC2CCCN(CC(N)=O)C2)c(=O)[nH]1` (stereo not drawn), with -7.85%; and `Cc1csc(C(Cc2ccsc2)NC(=O)c2cc(=O)n(C)c(=O)n2C)n1` (stereo not drawn), with -4.94%.
Take `N#Cc1cccc(CNCCNC(=O)Cc2cccc(F)c2)c1`: the cytotoxicity at 70.5 h worked out at 26.7%.
As to `Cc1cnc(N2C[C@@H]3CN(C4CCOC4)CCC[C@]3(C(=O)O)C2)nc1` (stereo partly drawn), the cytotoxicity at 70.5 h is -7.9%.
Turning to `Cc1cnn(C2CN(Cc3nc4cc(Cl)ccc4n3C)C2)c1`, the cytotoxicity at 70.5 h was determined as 7.22%.
The figure for `CC(C)Oc1cccc2c1c(NC(=O)CN(C)C)nn2CC(F)(F)F` is -8.54%; for `Cc1cc(N2CCC(c3nccn3Cc3cscn3)CC2)ccn1` it is -3.14%; for `CCn1ncc2c1C(COC)N(C(=O)Cc1cccs1)CC2` (stereo not drawn) it is -0.61%.
Consider `O=S(=O)(c1ccccc1)N1CCCN(CCCn2ccnc2)CC1`, for which the cytotoxicity at 70.5 h was -10.3%.
Then `O=C(C[C@H]1[C@H]2CN(Cc3ccncc3)C[C@@H]12)N1CCCC1`, with 20.1%.
For the compound `O=C(NC1(c2nccs2)CCCC1)c1cc(C2CC2)on1`, the cytotoxicity at 70.5 h was -3.31%.
Consider `CC(C)OC(=O)N1CCC(Nc2ncc(Br)cn2)CC1`, for which the cytotoxicity at 70.5 h was -2.18%.
Then `O=C(NCc1n[nH]c2c1CCCCC2)c1cnn2c1CCCC2`, with -12.2%; and `O=C(c1cscn1)N1CCC2(CCN(Cc3cccs3)CC2)C1`, with -6.38%; and `Cc1ncccc1NC(=O)[C@@H]1C[C@@H]2CCN(Cc3cccs3)C[C@H]2O1`, with -12.3%.
For the compound `O=C(Cc1ccc2c(c1)OCCCO2)Nc1nnn[nH]1`, the cytotoxicity at 70.5 h was -6.98%.
Then `CCN(CC)C(=O)C1CCCN1C(=O)c1cccc(-n2cnnn2)c1` (stereo not drawn), with -4.16%; and `CC1(C)OCC2(CO1)CN(C(=O)c1cccc3ccccc13)C2`, with -8.48%; and `O=C(c1cnc(Nc2ccccc2)nc1)N1CCCC2(CCNC2)C1` (stereo not drawn), with -8.38%.
In the case of `COCCCNC(=O)c1cc(C(C)C)nc(N2CCCCCC2)n1`, the cytotoxicity at 70.5 h is -8.22%.
For `COCCN1Cc2ccnn2CC(COCc2cccnc2)C1` (stereo not drawn), the cytotoxicity at 70.5 h was -5.12%.
The figure for `CN(Cc1nc(C2CC2)no1)C(=O)c1cccc(CC2CCNCC2)c1` is -5.09%.
For `O=C1COc2cc(S(=O)(=O)NCCC3=CCCCC3)c(Br)cc2N1`, the cytotoxicity at 70.5 h was -8%.
On to `O=C(c1ccncc1)N1Cc2ccccc2OC2(CCOCC2)C1`, for which the cytotoxicity at 70.5 h is -18.2%.
For `CCN1CCCC1CNCc1cc2cc(OC)ccc2[nH]c1=O` (stereo not drawn), the cytotoxicity at 70.5 h was -0.0295%.
Then `Cc1cc(CN2CCN(C(=O)NCc3ccc(C)s3)CC2)no1`, with -27.6%; and `COC(=O)N1CCCC(NC(=O)NCc2ccc(C)nc2)C1` (stereo not drawn), with -4.96%.
Take `CCOCC(O)CN1CCN(C(=O)CC(C)(C)C)CC1` (stereo not drawn): the cytotoxicity at 70.5 h was -18.5%.
The figure for `CCn1c(C)nnc1SCCNc1nc(C)ncc1S(C)(=O)=O` is -11.4%.
Take `CCCn1nc(C)c(CNC(=O)c2snnc2C)c1C`: the cytotoxicity at 70.5 h was -13.1%.
`COc1cccc(OC2CN(C(=O)CCn3cnnn3)C2)c1`: the cytotoxicity at 70.5 h is -10.5%.
On to `O=C(NCC1(N2CCOCC2)CCSC1)Nc1cn[nH]c1` (stereo not drawn), for which the cytotoxicity at 70.5 h was -10.2%.
In the case of `Cc1nc(C)n(CC2CCCN2CC(=O)NCCc2ccccc2)n1` (stereo not drawn), the cytotoxicity at 70.5 h is -4.21%.
Take `c1ncn(Cc2cn3c(n2)CN(CC2CCCC2)CC3)n1`: the cytotoxicity at 70.5 h came to 1.84%.
Then `Cc1c(C(=O)NCC2CCCO2)nnn1-c1cccc2c1CCN(C)C2` (stereo not drawn), with 19.8%; and `Cn1cc(-c2ncnc3c2CCN(CC2CCOC2)CC3)cn1` (stereo not drawn), with -7.49%; and `COc1ccc(OC)c(CNCc2c(C(C)C)nn(C)c2N(C)C)c1`, with -3.06%.
As for `Cc1ccc(F)cc1S(=O)(=O)N1C[C@@H](C)[C@@](C)(O)C1`, the cytotoxicity at 70.5 h turned out to be 14.7%.
Then `COc1ccc(CNC2CCN(c3ccccc3)C2)cc1O` (stereo not drawn), with 19.7%; and `Cc1nc2cc(=O)[nH]n2c(C)c1CNC(=O)C(C)Cc1ccccc1` (stereo not drawn), with 3.77%.
